{
  "source": "patent US6914045B2",
  "about": "“Glycopeptide antibiotics” (Wyeth Holdings Corporation, priority 2001, dated 2005)",
  "assay_in_all_cases": "in vitro antibacterial evaluation, MIC by broth dilution",
  "assay_type_in_all_cases": "cell-based",
  "key": {"Enterococcus sp.": {"tested_on": "Enterococcus sp.", "conditions": "broth dilution, 18 hours at 35° C.", "method_in_brief": "(§1)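 MIC, the lowest antibiotic concentration preventing growth, was read across 64-0.06 μg/mL with 5×10^5 CFU/mL inoculum. Method followed NCCLS M7-A2 broth dilution using Mueller-Hinton II; Gram-positive strains covered recent methicillin-, penicillin- and/or vancomycin-resistant clinical isolates.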"}, "Staphylococcus sp.": {"tested_on": "Staphylococcus sp.", "conditions": "broth dilution, 18 hours at 35° C.; for MIC Staphylococcus aureus (GC 1131): strain GC 1131", "method_in_brief": "as §1"}, "Streptococcus sp.": {"tested_on": "Streptococcus sp.", "conditions": "broth dilution, 18 hours at 35° C.", "method_in_brief": "as §1"}, "Escherichia coli": {"tested_on": "Escherichia coli", "method_in_brief": "as §1"}},
  "data": [
    {"compound": "CC(c1ccccc1)C1NC(=O)CNC(=O)C(CO)NC(=O)C(C(O)C2CNC(=N)N2C2OC(CO)C(O)C(O)C2O)NC(=O)C(C(O)C2CNC(=N)N2)NC(=O)C(Cc2ccc(OC3OC(CO)C(OC4OC5COC(c6ccc7ccccc7c6)OC5C(O)C4O)C(O)C3O)cc2)NC1=O", "note": "(stereo not drawn) [Example 145]", "values": [
      {"measurement": "MIC Enterococcus avium (GC 4558)", "setting": "Enterococcus sp.; Enterococcus avium (GC 4558)", "value": 1, "unit": "µg/mL"},
      {"measurement": "MIC Enterococcus faecalis (ATCC 29212)", "setting": "Enterococcus sp.; Enterococcus faecalis (ATCC 29212)", "value": 1, "unit": "µg/mL"},
      {"measurement": "MIC Enterococcus faecalis (GC 2242)", "setting": "Enterococcus sp.; Enterococcus faecalis (GC 2242)", "value": "<0.5", "unit": "µg/mL"},
      {"measurement": "MIC Enterococcus faecalis (GC 2691)", "setting": "Enterococcus sp.; Enterococcus faecalis (GC 2691)", "value": 1, "unit": "µg/mL"},
      {"measurement": "MIC Enterococcus faecalis (GC 3059)", "setting": "Enterococcus sp.; Enterococcus faecalis (GC 3059)", "value": 1, "unit": "µg/mL"},
      {"measurement": "MIC Enterococcus faecalis (GC 4552)", "setting": "Enterococcus sp.; Enterococcus faecalis (GC 4552)", "value": 1, "unit": "µg/mL"},
      {"measurement": "MIC Enterococcus faecalis (GC 4553)", "setting": "Enterococcus sp.; Enterococcus faecalis (GC 4553)", "value": 2, "unit": "µg/mL"},
      {"measurement": "MIC Enterococcus faecalis (GC 4554)", "setting": "Enterococcus sp.; Enterococcus faecalis (GC 4554)", "value": 1, "unit": "µg/mL"},
      {"measurement": "MIC Enterococcus faecalis (GC 6189)", "setting": "Enterococcus sp.; Enterococcus faecalis (GC 6189)", "value": 1, "unit": "µg/mL"},
      {"measurement": "MIC Enterococcus faecium (GC 2243)", "setting": "Enterococcus sp.; Enterococcus faecium (GC 2243)", "value": 1, "unit": "µg/mL"},
      {"measurement": "MIC Enterococcus faecium (GC 4556)", "setting": "Enterococcus sp.; Enterococcus faecium (GC 4556)", "value": 1, "unit": "µg/mL"},
      {"measurement": "MIC Enterococcus faecium (GC 4557)", "setting": "Enterococcus sp.; Enterococcus faecium (GC 4557)", "value": 1, "unit": "µg/mL"},
      {"measurement": "MIC Enterococcus faecalis (ATCC 29212)", "setting": "Enterococcus sp.; strain ATCC 29212", "value": 1, "unit": "µg/mL"},
      {"measurement": "MIC Enterococcus faecalis (GC 2242)", "setting": "Enterococcus sp.; strain GC 2242", "value": "<0.5", "unit": "µg/mL"},
      {"measurement": "MIC Enterococcus faecium (GC 2243)", "setting": "Enterococcus sp.; strain GC 2243", "value": 1, "unit": "µg/mL"},
      {"measurement": "MIC Enterococcus faecalis (GC 2691)", "setting": "Enterococcus sp.; strain GC 2691", "value": 1, "unit": "µg/mL"},
      {"measurement": "MIC Enterococcus faecalis (GC 3059)", "setting": "Enterococcus sp.; strain GC 3059", "value": 1, "unit": "µg/mL"},
      {"measurement": "MIC Enterococcus faecalis (GC 4552)", "setting": "Enterococcus sp.; strain GC 4552", "value": 1, "unit": "µg/mL"},
      {"measurement": "MIC Enterococcus faecalis (GC 4553)", "setting": "Enterococcus sp.; strain GC 4553", "value": 2, "unit": "µg/mL"},
      {"measurement": "MIC Enterococcus faecalis (GC 4554)", "setting": "Enterococcus sp.; strain GC 4554", "value": 1, "unit": "µg/mL"},
      {"measurement": "MIC Enterococcus faecium (GC 4556)", "setting": "Enterococcus sp.; strain GC 4556", "value": 1, "unit": "µg/mL"},
      {"measurement": "MIC Enterococcus faecium (GC 4557)", "setting": "Enterococcus sp.; strain GC 4557", "value": 1, "unit": "µg/mL"},
      {"measurement": "MIC Enterococcus avium (GC 4558)", "setting": "Enterococcus sp.; strain GC 4558", "value": 1, "unit": "µg/mL"},
      {"measurement": "MIC Enterococcus faecalis (GC 6189)", "setting": "Enterococcus sp.; strain GC 6189", "value": 1, "unit": "µg/mL"},
      {"measurement": "MIC Staphylococcus aureus (GC 1131)", "setting": "Staphylococcus sp.; inoculum 5×10^5 CFU/mL", "value": "<0.5", "unit": "µg/mL"},
      {"measurement": "MIC Staphylococcus aureus (ATCC 29213)", "setting": "Staphylococcus sp.; strain ATCC 29213", "value": 1, "unit": "µg/mL"},
      {"measurement": "MIC Staphylococcus aureus (GC 1131)", "setting": "Staphylococcus sp.", "value": "<0.5", "unit": "µg/mL"},
      {"measurement": "MIC Staphylococcus aureus (GC 3051)", "setting": "Staphylococcus sp.; strain GC 3051", "value": 1, "unit": "µg/mL"},
      {"measurement": "MIC Staphylococcus aureus (GC 3053)", "setting": "Staphylococcus sp.; strain GC 3053", "value": 1, "unit": "µg/mL"},
      {"measurement": "MIC Staphylococcus aureus (GC 4541)", "setting": "Staphylococcus sp.; strain GC 4541", "value": "<0.5", "unit": "µg/mL"},
      {"measurement": "MIC Staphylococcus aureus (GC 4542)", "setting": "Staphylococcus sp.; strain GC 4542", "value": "<0.5", "unit": "µg/mL"},
      {"measurement": "MIC Staphylococcus aureus-SMITH (GC 4543)", "setting": "Staphylococcus sp.; strain GC 4543", "value": "<0.5", "unit": "µg/mL"},
      {"measurement": "MIC Staphylococcus aureus (GC 4544)", "setting": "Staphylococcus sp.; strain GC 4544", "value": 1, "unit": "µg/mL"},
      {"measurement": "MIC Staphylococcus aureus (GC 4545)", "setting": "Staphylococcus sp.; strain GC 4545", "value": 1, "unit": "µg/mL"},
      {"measurement": "MIC Staphylococcus haemolyticus (GC 4546)", "setting": "Staphylococcus sp.; strain GC 4546", "value": "<0.5", "unit": "µg/mL"},
      {"measurement": "MIC Coagulase Negative Staphylococcus (GC 4547)", "setting": "Staphylococcus sp.; strain GC 4547", "value": 1, "unit": "µg/mL"},
      {"measurement": "MIC Coagulase Negative Staphylococcus (GC 4548)", "setting": "Staphylococcus sp.; strain GC 4548", "value": "<0.5", "unit": "µg/mL"},
      {"measurement": "MIC Coagulase Negative Staphylococcus (GC 4549)", "setting": "Staphylococcus sp.; strain GC 4549", "value": 1, "unit": "µg/mL"},
      {"measurement": "MIC Coagulase Negative Staphylococcus (GC 4551)", "setting": "Staphylococcus sp.; strain GC 4551", "value": "<0.5", "unit": "µg/mL"},
      {"measurement": "MIC Coagulase Negative Staphylococcus (GC 6257)", "setting": "Staphylococcus sp.; strain GC 6257", "value": 0.5, "unit": "µg/mL"},
      {"measurement": "MIC Staphylococcus aureus-SMITH (GC 4543)", "setting": "Staphylococcus sp.; strain SMITH GC 4543", "value": "<0.5", "unit": "µg/mL"},
      {"measurement": "MIC Streptococcus agalactiae (GC 4564)", "setting": "Streptococcus sp.; Streptococcus agalactiae (GC 4564)", "value": "<0.5", "unit": "µg/mL"},
      {"measurement": "MIC Streptococcus pneumoniae (ATCC 6301)", "setting": "Streptococcus sp.; Streptococcus pneumoniae (ATCC 6301)", "value": "<0.5", "unit": "µg/mL"},
      {"measurement": "MIC Streptococcus pneumoniae (GC 1894)", "setting": "Streptococcus sp.; Streptococcus pneumoniae (GC 1894)", "value": "<0.5", "unit": "µg/mL"},
      {"measurement": "MIC Streptococcus pneumoniae (GC 4565)", "setting": "Streptococcus sp.; Streptococcus pneumoniae (GC 4565)", "value": "<0.5", "unit": "µg/mL"},
      {"measurement": "MIC Streptococcus pyogenes (GC 4563)", "setting": "Streptococcus sp.; Streptococcus pyogenes (GC 4563)", "value": 1, "unit": "µg/mL"},
      {"measurement": "MIC Streptococcus pneumoniae (ATCC 6301)", "setting": "Streptococcus sp.; strain ATCC 6301", "value": "<0.5", "unit": "µg/mL"},
      {"measurement": "MIC Streptococcus pneumoniae (GC 1894)", "setting": "Streptococcus sp.; strain GC 1894", "value": "<0.5", "unit": "µg/mL"},
      {"measurement": "MIC Streptococcus pyogenes (GC 4563)", "setting": "Streptococcus sp.; strain GC 4563", "value": 1, "unit": "µg/mL"},
      {"measurement": "MIC Streptococcus agalactiae (GC 4564)", "setting": "Streptococcus sp.; strain GC 4564", "value": "<0.5", "unit": "µg/mL"},
      {"measurement": "MIC Streptococcus pneumoniae (GC 4565)", "setting": "Streptococcus sp.; strain GC 4565", "value": "<0.5", "unit": "µg/mL"},
      {"measurement": "MIC Escherichia coli (ATCC 25922)", "setting": "Escherichia coli; strain ATCC 25922, 18 hours at 35° C.", "value": 64, "unit": "µg/mL"},
      {"measurement": "MIC Escherichia coli (GC 4559)", "setting": "Escherichia coli; strain GC 4559, 18 hours at 35° C.", "value": 32, "unit": "µg/mL"},
      {"measurement": "MIC Escherichia coli (GC 4560)", "setting": "Escherichia coli; strain GC 4560, 18 hours at 35° C.", "value": "<0.5", "unit": "µg/mL"}
    ]}
  ]
}
